pIC50: −log10 of the molar value. Like-named read-outs stand apart in the source and are kept apart here. Starred links: 1 amine or outer side, 2 acyl side, 3 side chain; linkers in the order of their positions; H or OH if unused. Positions of bridges follow the written chain, without caps; N, C: chain ends. Non-standard residues stand in square brackets, D forms with d. Residues, ends and D or L forms follow the SMILES beside them. Chains are numbered I, II in the order given. Actinocin(9to1) = Cc1c2oc3c(C)ccc(C(=O)[*:1])c3nc-2c(C(=O)[*:2])c(N)c1=O; NMeV = CN[C@H](C(=O)O)C(C)C; Sar = CNCC(=O)O
Tests used:
[1] = tested on: RUES2-GLR cells; test: DevTox GLR-Endo assay: decrease in total cell count, cytotoxicity (AEID 3098, CellCount_dn); conditions: for Emax: Homo sapiens, read-out: Cell Count % Max Inhibition
[2] = as above; conditions: human
[3] = tested on: SOX17 (endoderm marker) in RUES2-GLR cells; test: DevTox GLR-Endo assay: increase in percent SOX17-positive cells (AEID 3093, Sox17_up); format: cell-based, human; conditions: for Emax: Homo sapiens; for HIT−CALL: tcpl plot AEID3093, COFF 20.3
Method: The total test chemical incubation period was 48 h.
(Supplementary Materials).

[4] = tested on: SOX17 in H9 human ESC line; conditions: SOX17 half-maximal inhibition concentration; read-out: hPST IC50; cited from earlier work
[5] = tested on: SOX2 (ectoderm and pluripotency marker) in RUES2-GLR cells; test: DevTox GLR-Endo assay: increase in percent SOX2-positive cells (AEID 3095, Sox2_up); conditions: for AC50 / Emax: Homo sapiens; for AC50: read-out: ga (winning model); for Emax: read-out: tp (winning model); for MAX_MEAN: tcpl plot AEID3095, maximum mean response; for MAX_MED: tcpl plot AEID3095, maximum median response
[6] = cited from earlier work; for Development Toxicant Classification: Table S2; for Classification: developmental toxicant classification (Teratogen / Non-Teratogen) of reference and training chemicals, ref DOI per chemical: 10.1093/toxsci/kft239, 10.1093/toxsci/kfaa014, 10.1177/026119290203000204, 10.1038/s41598-020-59542-x; for DT Class.: developmental toxicant classification, chemicals common with hPST
[7] = tested on: SOX17 (endoderm marker) in RUES2-GLR cells; test: DevTox GLR-Endo assay: decrease in percent SOX17-positive cells (AEID 3094, Sox17_dn); conditions: for Hit Call: Table S2, SOX17-positive cells, cutoff 3*bmad; for DevTox ACC: Table S2, percent SOX17-positive cells; for HIT−CALL: tcpl plot AEID3094, COFF 20.3
Procedure, shortened: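 RUES2-GLR cells under endoderm differentiation exposed to test chemicals for 48 h in total, with 0.2% DMSO solvent control and SB431542 (1 µM) as developmental-toxicant control. Endpoints: decrease in total cell count and in percent SOX17-positive cells; n = 4 biological replicates minimum.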

[8] = tested on: H9 human ESC line; conditions: cited from earlier work
[9] = RUES2-GLR cells under directed endoderm differentiation
[10] = tcpl plot AEID3093, maximum mean response, read-out: MAX_MEAN
[11] = tcpl plot AEID3093, maximum median response, read-out: MAX_MED
[12] = Homo sapiens, 48 h, read-out: DevTox-GLR Endo AC50 (µM), SOX17 half-maximal activity concentration, 48 h exposure
[13] = Homo sapiens, read-out: DevTox % Max Inhibition
[14] = Homo sapiens, read-out: MAX_MEAN
[15] = Homo sapiens, read-out: MAX_MED
[16] = Homo sapiens, read-out: ga (winning model), tcpl plot AEID3094, gain parameter of winning curve fit (log concentration, µM axis), hit calls only (converted)
[17] = Homo sapiens, read-out: tp (winning model)
[18] = cytotoxicity half-maximal concentration
[19] = Homo sapiens, 48 h, read-out: DevTox-GLR Endo AC50 (µM)
[20] = Homo sapiens, read-out: ga (winning model)

SMILES | Emax [1] [%] | Emax [3, 10] [%] | HIT−CALL [3] | pIC50 [4] | AC50 [5] [µM] | Emax [5] [%] | MAX_MEAN [5] [Percent Activity] | MAX_MED [5] [Percent Activity] | Development Toxicant Classification [6] | Classification [6] | DT Class. [6] | Emax [7, 13] [%] | Emax [7, 14] [%] | Emax [7, 15] [%] | Emax [7, 17] [%] | Hit Call [7] | DevTox ACC ([7]; 48 h exposure) [µM] | HIT−CALL [7] | hPST TC50 [8, 18] [µM] | hPST TC50 ([8]; hPST cytotoxicity) [µM] | further results
COc1cc2c(Nc3ccc(Br)cc3F)ncnc2cc1OCC1CCN(C)CC1 [Vandetanib] | 98.3 | 7.33 | 0 | 5.46 | 7.23 | 23.1 | 10.9 | 10.8 | Positive | Teratogen | Pos | 102 | 102 | 102 | 101 | Positive | 4.123 | 1 | 4.4 | 4.4 | Cell Count ACC ([1]; Table S2, 48 h exposure): 2.124 µM; CC50 at 48 h [2, 9]: 4.32 µM; Emax [3, 11]: 9.78%; AC50 [7, 12]: 4.9 µM; AC50 [7, 16]: 4.91 µM
Cc1nc(Nc2ncc(C(=O)Nc3c(C)cccc3Cl)s2)cc(N2CCN(CCO)CC2)n1 [Dasatinib] | 96 | 5.98 | 0 | > 6.00 | 148 | 85.8 | 63.7 | 64.4 | Positive | Teratogen | Pos | 102 | 102 | 102 | 102 | Positive | 0.3299 | 1 | <1 | < 1 | Cell Count ACC ([1]; human, 48 h): 0.005325 µM; CC50 at 48 h [2]: 0.05 µM; Emax [3, 11]: 3.77%; AC50 [7, 12]: 0.72 µM; AC50 [7, 16]: 0.721 µM
COc1ccc2nc([S@@+]([O-])Cc3ncc(C)c(OC)c3C)[nH]c2c1 [Esomeprazole] | 94 | 0.101 | 0 | 4.49 | 69.2 | 17.4 | 23.9 | 21.6 | Negative | Non-Teratogen | Neg | 101 | 101 | 101 | 123 | Positive | 12.9286 | 1 | 101 | 101 | Cell Count ACC ([1]; human, 48 h): 28.1982 µM; CC50 at 48 h [2, 9]: 38.5 µM; Emax [3, 11]: 1.23%; SOX17 ACC relative to cytotoxic concentration (in words) [7]: below cytotoxic concentrations; hit call designation (in words) ([7]; DevTox GLR-Endo prediction against developmental toxicant classification): false positive; AC50 [7, 12]: 34 µM; AC50 [7, 16]: 33.9 µM; Emax ([7]; Homo sapiens, read-out: maximum observed effect level class (% max inhibition)): 80 to 100%; AC50 ([7]; read-out: DevTox-GLR Endo AC50, SOX17 half-maximal activity concentration, 48 h exposure): 33.8 µM
CCN(CC)CCNC(=O)c1c(C)[nH]c(/C=C2\C(=O)Nc3ccc(F)cc32)c1C [Sunitinib] | 97.7 | 0.538 | 0 | 5.55 | 5.41 | 6.74 | 3 | 3.23 | Positive | Teratogen | Pos | 102 | 102 | 102 | 101 | Positive | 0.5184 | 1 | 3.6 | 3.6 | Cell Count ACC ([1]; Table S2, 48 h exposure): 0.6087 µM; CC50 at 48 h [2, 9]: 1.26 µM; Emax [3, 11]: 0.596%; SOX17 ACC relative to cytotoxic concentration (in words) [7]: below cytotoxic concentrations; AC50 [7, 12]: 0.63 µM; AC50 [7, 16]: 0.628 µM
Cc1c2oc3c(C)ccc(C(=O)N[C@@H]4C(=O)N[C@H](C(C)C)C(=O)N5CCC[C@H]5C(=O)N(C)CC(=O)N(C)[C@@H](C(C)C)C(=O)O[C@@H]4C)c3nc-2c(C(=O)N[C@@H]2C(=O)N[C@H](C(C)C)C(=O)N3CCC[C@H]3C(=O)N(C)CC(=O)N(C)[C@@H](C(C)C)C(=O)O[C@@H]2C)c(N)c1=O [Actinomycin D] (I: T[dV]P[Sar][NMeV] / II: T[dV]P[Sar][NMeV]; ester I:1-I:C, II:1-II:C; linker I:N-II:N via Actinocin(9to1)) | 96 |  | 0 | > 8.00 | 0.1 | 24 | 20.2 | 20.2 | Positive | Teratogen | Pos | 101 | 102 | 101 | 101 | Positive | 2.881e-05 | 1 | <0.01 | < 0.01 | Cell Count ACC ([1]; Table S2, 48 h exposure): 0.0003574 µM; CC50 [2]: 0.00048 µM; Emax ([3]; read-out: MAX_MEAN): 6.35%; Emax ([3]; read-out: MAX_MED): 3.62%; SOX17 ACC relative to cytotoxic concentration (in words) [7]: below cytotoxic concentrations; AC50 [7, 19]: 3.7e-05 µM; AC50 [7, 20]: 3.63e-05 µM
NC(=O)c1ccc(N)nc1 [6-Aminonicotinamide, 6−aminopyridine−3−carboxamide] | 89.9 | 2.7 | 0 | 5.15 | 309 | 9.6 | 4.77 | 4.39 | Positive | Teratogen | Pos | 101 | 101 | 101 | 101 | Positive | 12.5605 | 1 | 8 | 8 | Cell Count ACC ([1]; Table S2, 48 h exposure): 20.3443 µM; CC50 [2]: 23.9 µM; Emax [3, 11]: 3%; AC50 [7, 19]: 16.6 µM; AC50 [7, 20]: 16.6 µM; SOX17 ACC relative to cytotoxic concentration (in words) ([7]; training set, ACC versus cell count ACC): below cytotoxic concentrations

Reference: article PMC9321663, “The DevTox Germ Layer Reporter Platform: An Assay Adaptation of the Human Pluripotent Stem Cell Test” (Toxics, 2022)
